The values below come from patent US6448030B1, “Method for predicting the efficacy of anti-cancer drugs” (University of Nevada-Las Vegas, priority 2000, dated 2002).

The subject of experiment [1] is human breast cancer cells. Nature of the experiment: Haptotactic migration of breast cancer cells towards fibronectin in a migration plate, migrated cells labeled with calcein-AM. It is filed as cell-based. The settings on record: for inhibition of migration, dose dependence: sublethal concentration. The protocol: (§1) After 18 hours, migrated cells were labeled with calcein-AM and fluorescence quantitated from the bottom. Nonmigrated cells were labeled with propidium iodide and fluorescence quantitated from the top. Estimation of 100% cell death was made by lysing cells in a test chamber with 1% Triton X-100 (TX 100) Error bars represent the standard deviation of 4-16 replicate test chambers. Asterisks represent a significant difference from migration without drugs (P<0.05). RFU=relative fluorescence units.
(§2) The cell suspension was added to the first chamber of a migration plate containing 96 chambers per plate at a concentration of about 80,000 cells per chamber. The migration plate used in this assay was manufactured by Polyfiltronics. Similar plates are available from Becton-Dickinson (U.S. Pat No. 5,801,055). The second chamber contained either haptotactic stimulus in the form of 20 μg/ml fibronectin or chemotactic in the form of 5% fetal calf serum. Cells were allowed to migrate in a humidified incubator at 37° C. and 5% carbon dioxide […].
(§3) During the last half hour of the incubation, calcein-AM (Molecular Probes, Eugene, Oreg.) was added to the second chamber to a final concentration of 5 μM and propidium iodide was added to the first chamber to a final concentration of 30 μM. At the end of the incubation the underside of the filters were washed twice in phosphate buffered saline. Fluorescence from each individual well chamber was measured from the bottom using 485 nm excitation and 530 nm emission filters.
(§4) Fluorescence from each individual well chamber was measured from the top using 560 nm excitation and 645 nm emission wavelength filters using a Tecan SpectraFluor fluorescent plate reader (Research Triangle Park NC). […] The asterisks represent a significant difference from positive control (p<0.05).

Experiment [2] concerns human breast cancer cells. Nature of the experiment: Chemotactic migration of breast cancer cells towards serum in a migration plate, migrated cells labeled with calcein-AM. It is filed as cell-based. Particulars: highly metastatic breast cells; for inhibition at 20 µM: 20 μM drug. The protocol: as §1, §2, §3, §4
The mark [3] stands for this setting: haptotactic and chemotactic migration.
Setting [4] is: Homo sapiens, serum stimulus, read-out: inhibition of chemotaxis.

`NC(=O)c1nnn(Cc2cc(Cl)c(C(=O)c3ccc(Cl)cc3)c(Cl)c2)c1N` [CAI, carboxyamido-triazole]: the inhibition of haptotaxis result in experiment [1] (20 μM drug, fibronectin stimulus, highly metastatic breast cells) is reported as “abolished haptotaxis”. The inhibition (in general, how much of the control response was suppressed) at 10 µM in experiment [1] (Homo sapiens, 10 μM drug, fibronectin stimulus, highly metastatic breast cells, read-out: inhibition of haptotaxis) is 32%. For the same compound, in experiment [1] (setting [3]), the “effectiveness at halting migration, comparison of the two drugs” value is “more effective than tamoxifen at halting migration” and the “inhibition of migration, dose dependence” value was “inhibited migration in a dose-dependent manner at sublethal concentration”. In experiment [1] (highly metastatic breast cells, FIGS. 3A, 3B), the “haptotactic migration inhibition relative to concentrations causing cell death” value was “inhibited at lower concentrations than those that cause cell death”. The inhibition at 10 µM in experiment [2] (Homo sapiens, 10 μM drug, serum stimulus, read-out: inhibition of chemotaxis) was 7%. Moreover, in experiment [2] (setting [4]), the inhibition at 20 µM was 42%. For the same compound, the “chemotactic migration inhibition relative to concentrations causing cell death” value in experiment [2] (FIGS. 3A, 3B) is “inhibited at lower concentrations than those that cause cell death”.
Turning to `CC/C(=C(\c1ccccc1)c1ccc(OCCN(C)C)cc1)c1ccccc1` [tamoxifen], the inhibition of haptotaxis result in experiment [1] (10 μM drug, fibronectin stimulus, highly metastatic breast cells) is “non-significant inhibition”. The inhibition at 20 µM in experiment [1] (Homo sapiens, 20 μM drug, fibronectin stimulus, highly metastatic breast cells, read-out: inhibition of haptotaxis) is 51%; in experiment [2] (setting [4]), 9%. Also, the “inhibition of migration, dose dependence” value in experiment [1] (setting [3]) was “inhibited migration in a dose-dependent manner at sublethal concentration”. For the same compound, in experiment [2] (10 μM drug, serum stimulus), the inhibition of chemotaxis entry is on record as “non-significant inhibition”.
